# Experimental data taken from ChEMBL document CHEMBL5321255, “Sumatranins A-J: Lignans with Immunosuppressive Activity from Cleistanthus sumatranus” (J Nat Prod, 2023).
# pIC50: −log10 of the molar value.
# Tests used:
# [1] = Selectivity index, ratio of CC50 for cytotoxicity against BALB/c mouse splenocyte to IC50 for immunosuppressive activity in BALB/c mouse splenocytes assessed as inhibition of ConA-induced T cell proliferation; assay type: cell-based; settings: read-out: Ratio CC50/IC50
# [2] = test system: Splenocyte; test: Immunosuppressive activity in BALB/c mouse splenocytes assessed as inhibition of LPS-induced B cell proliferation by measuring [3H]-thymidine uptake by beta scintillation counter analysis; assay type: functional, cell-based
# [3] = Selectivity index, ratio of CC50 for cytotoxicity against BALB/c mouse splenocyte to IC50 for immunosuppressive activity in BALB/c mouse splenocytes assessed as inhibition of LPS-induced B cell proliferation; assay type: cell-based; settings: read-out: Ratio CC50/IC50
# [4] = test system: Splenocyte; test: Immunosuppressive activity in BALB/c mouse splenocytes assessed as inhibition of ConA-induced T cell proliferation by measuring [3H]-thymidine uptake by beta scintillation counter analysis; assay type: functional, cell-based
# [5] = Cytotoxicity against BALB/c mouse splenocytes incubated for 48 hrs by MTT assay; assay type: toxicity, cell-based, Splenocyte
Structure (SMILES),selectivity ratio [1],pIC50 [2],selectivity ratio [3],pIC50 [4],CC50 at 48 h [5] [µM]
COc1cc2c(cc1O)O[C@H]1OC[C@H](Cc3cc4c(cc3O)OCO4)[C@H]1C2,5.6,4.92,6.8,4.83,82.5
OC[C@H](Cc1ccc2c(c1)OCO2)[C@](O)(CO)Cc1cc2c(cc1O)OCO2,3.6,4.74,–,4.56,99.3
Oc1cc2c(cc1C[C@H]1CO[C@@H]3Oc4cc5c(cc4C[C@H]13)OCO5)OCO2,1.7,4.48,2.8,4.29,90.3
OC[C@H](Cc1cc2c(cc1O)OCO2)[C@](O)(CO)Cc1cc2c(cc1O)OCO2,1.9,4.57,4.1,4.25,108
COc1cc(C[C@H]2CO[C@@H]3Oc4cc5c(cc4C[C@H]23)OCO5)ccc1O,4,5.57,14.9,5.00,40.1
O=C(Cc1ccc2c(c1)OCO2)[C@H](CO)Cc1ccc2c(c1)OCO2,3.8,5.41,17.5,4.74,68
